# Literature values as cited in PubChem BioAssay AID1259409 (Chemical Carcinogenesis Research Information System (CCRIS), 2018).
# Where a SMILES comes first, the peptide text is derived from it. Bridges are numbered along the chain shown (N, C = ends). [ ]: non-standard residue; d: D form.
# Tested on: rodent chemically induced tumor inhibition, incidence and multiplicity
# Test: CCRIS tumor inhibitor studies
compound,measurement,setting,value
CC(C)[C@@H]1NC(=O)[C@H](CCCCN)NC(=O)[C@@H](Cc2c[nH]c3ccccc23)NC(=O)[C@H](Cc2ccc(O)cc2)NC(=O)[C@@H](NC(=O)[C@H](N)Cc2ccccc2)CSSC[C@@H](C(=O)N[C@@H](Cc2c[nH]c3ccccc23)C(N)=O)NC1=O (H-[dF]CY[dW]KVCW-NH2; disulfide 2-7),"tumour outcome (control, treated, inhibition, significance)","Carcinogen: N-BUTYL-N-(4-HYDROXYBUTYL)NITROSAMINE, 3817-11-6, Dose [Inhibitor]: 0, 50 UG/RAT/D FOR 12 WK BEGINNING POST CARCINOGEN TREATMENT (STUDY DURATION: 17 WK), Route [Inhibitor]: SUBCUTANEOUS, Species: RAT, Strain/Sex: F344/FEMALE, Target Tissue: Type of Lesion: URINARY BLADDER: CARCINOMA IN SITU, Dose [Carcinogen]: 0.05% IN DRINKING WATER FOR 4 WK, Promoter: MITOMYCIN C, 50-07-7","10/40 (25%), 1/20 (5%), 80%, p<0.001"
same,"tumour outcome (control, treated, inhibition, significance)","Carcinogen: N-BUTYL-N-(4-HYDROXYBUTYL)NITROSAMINE, 3817-11-6, Dose [Inhibitor]: 0, 50 UG/RAT/D FOR 12 WK BEGINNING POST CARCINOGEN TREATMENT (STUDY DURATION: 17 WK), Route [Inhibitor]: SUBCUTANEOUS, Species: RAT, Strain/Sex: F344/FEMALE, Target Tissue: Type of Lesion: URINARY BLADDER: INVASIVE CARCINOMA, Dose [Carcinogen]: 0.05% IN DRINKING WATER FOR 4 WK, Promoter: MITOMYCIN C, 50-07-7","12/40 (30%), 0/20 (0%), 100%, not calculated"
same,"tumour outcome (control, treated, inhibition, significance)","Carcinogen: N-BUTYL-N-(4-HYDROXYBUTYL)NITROSAMINE, 3817-11-6, Dose [Inhibitor]: 0, 50 UG/RAT/D FOR 12 WK BEGINNING POST CARCINOGEN TREATMENT (STUDY DURATION: 17 WK), Route [Inhibitor]: SUBCUTANEOUS, Species: RAT, Strain/Sex: F344/FEMALE, Target Tissue: Type of Lesion: URINARY BLADDER: PAPILLOMA, Dose [Carcinogen]: 0.05% IN DRINKING WATER FOR 4 WK, Promoter: MITOMYCIN C, 50-07-7","20/40 (50%), 11/20 (55%), -10%, not significant"
same,"tumour outcome (control, treated, inhibition, significance)","Carcinogen: N-NITROSOBIS(2-OXOPROPYL)AMINE, 60599-38-4, Dose [Inhibitor]: 0, 35 UG/D FROM OSMOTIC PUMP FOR 2 MO, Route [Inhibitor]: SUBCUTANEOUS IMPLANT, Species: HAMSTER, Strain/Sex: SYRIAN/FEMALE, Target Tissue: Type of Lesion: PANCREAS: ADENOCARCINOMA, Promoter: NONE USED","12/12 (100%), 6/11 (55%), 45%, not calculated"
C[S+](CC[C@H](N)C(=O)[O-])C[C@H]1O[C@@H](n2cnc3c(N)ncnc32)[C@H](O)[C@@H]1O (some centres not stated),"tumour outcome (control, treated, inhibition, significance)","Carcinogen: 1,2-DIMETHYLHYDRAZINE, 540-73-8, Dose [Inhibitor]: 0, 96 UMOL/KG 4/D FOR 32 WK BEGINNING 1 WK POST CARCINOGEN DOSE (STUDY DURATION: 33 WK), Route [Inhibitor]: INTRAMUSCULAR, Species: RAT, Strain/Sex: F344/MALE, Target Tissue: Type of Lesion: LIVER: HEPATOCELLULAR CARCINOMA, Dose [Carcinogen]: 100 MG/KG ONCE 18 HR AFTER RATS WERE SUBJECTED TO TWO-THIRDS HEPATECTOMY, Promoter: OROTIC ACID, 65-86-1","6/16 (38%), 1/24 (4%), 89%, not calculated"
same,"tumour outcome (control, treated, inhibition, significance)","Carcinogen: DIETHYLNITROSAMINE, 55-18-5, N-ACETYLAMINOFLUORENE, 53-96-3, Carcinogen: DIETHYLNITROSAMINE, 55-18-5, N-ACETYLAMINOFLUORENE, 53-96-3, Dose [Inhibitor]: 0, 64 UMOL/KG 6/D FOR 24 WK BEGINNING POST CARCINOGEN TREATMENT (STUDY DURATION: 28 MO), Route [Inhibitor]: INTRAMUSCULAR, Species: RAT, Strain/Sex: WISTAR/MALE, Target Tissue: Type of Lesion: LIVER: CARCINOMA, Dose [Carcinogen]: 150 MG/KG DEN ONCE THEN 2 WK LATER 0.03% AAF IN DIET FOR 2 WK WITH A PARTIAL HEPATECTOMY PERFORMED MIDWAY THROUGH CARCIN, Promoter: PHENOBARBITAL, 50-06-6","10/10 (100%), 3/11 (27%), 73%, p<0.025"
C[C@@]12C[C@@]3(O)O[C@@H](O1)[C@]1(COC(=O)c4ccccc4)[C@H]3C[C@@]12O[C@@H]1O[C@H](CO)[C@@H](O)[C@H](O)[C@H]1O,"tumour outcome (control, treated, inhibition, significance)","Carcinogen: AZOXYMETHANE, 25843-45-2, Dose [Inhibitor]: 0, 0.02% IN DIET IN WK 1-3 OF STUDY FOLLOWED BY BASAL DIET FOR DURATION OF STUDY (STUDY DURATION: 1 YR), Route [Inhibitor]: ORAL, Species: RAT, Strain/Sex: F344/MALE, Target Tissue: Type of Lesion: LARGE INTESTINE: ADENOCARCINOMA, Dose [Carcinogen]: 15 MG/KG BW 1/WK IN WK 1 AND 2 OF STUDY, Promoter: NONE USED","13/27 (48%), 5/28 (18%), 63%, not significant"
same,"tumour outcome (control, treated, inhibition, significance)","Carcinogen: AZOXYMETHANE, 25843-45-2, Dose [Inhibitor]: 0, 0.02% IN DIET IN WK 1-3 OF STUDY FOLLOWED BY BASAL DIET FOR DURATION OF STUDY (STUDY DURATION: 1 YR), Route [Inhibitor]: ORAL, Species: RAT, Strain/Sex: F344/MALE, Target Tissue: Type of Lesion: LARGE INTESTINE: ADENOMA, Dose [Carcinogen]: 15 MG/KG BW 1/WK IN WK 1 AND 2 OF STUDY, Promoter: NONE USED","6/27 (22%), 9/28 (32%), -45%, not significant"
O=[As]O,"tumour outcome (control, treated, inhibition, significance)","Carcinogen: NONE USED, Dose [Inhibitor]: 10 PPM IN DRINKING WATER DAILY FOR DURATION OF STUDY (STUDY DURATION: 16 MO), Route [Inhibitor]: ORAL, Species: MOUSE, Strain/Sex: C3H/FEMALE, Target Tissue: Type of Lesion: MAMMARY GLAND: ADENOCARCINOMA, Promoter: NONE USED","82%, 27%, 67%, not calculated"
same,"tumour outcome (control, treated, inhibition, significance)","Carcinogen: NONE USED, Dose [Inhibitor]: 80 PPM IN DRINKING WATER DAILY STARTING AT AGE 1 MO AND CONTINUING FOR LIFE (STUDY DURATION: LIFE), Route [Inhibitor]: ORAL, Species: MOUSE, Strain/Sex: C3H/FEMALE, Target Tissue: Type of Lesion: MAMMARY GLAND: TUMOR, Promoter: NONE USED","82%, 40%, 51%, p 0.02"
C=CC[C@@H]1/C=C(\C)C[C@H](C)C[C@H](OC)[C@H]2O[C@@](O)(C(=O)C(=O)N3CCCC[C@H]3C(=O)O[C@H](/C(C)=C/[C@@H]3CC[C@@H](O)[C@H](OC)C3)[C@H](C)[C@@H](O)CC1=O)[C@H](C)C[C@@H]2OC,"tumour outcome (control, treated, inhibition, significance)","Carcinogen: 7,12-DIMETHYLBENZ[A]ANTHRACENE : 57-97-6, Dose [Inhibitor]: 0, 1 UMOL APPLIED 5 MIN PRIOR TO EACH PROMOTER DOSE FOR 22 WK BEGINNING 10 D POST CARCINOGEN DOSE (STUDY DURATION: 23 WK, Route [Inhibitor]: DERMAL, Species: MOUSE, Strain/Sex: CD-1/FEMALE, Target Tissue: Type of Lesion: SKIN: PAPILLOMA, Dose [Carcinogen]: 200 NMOL ONCE, Promoter: 12-O-TETRADECANOYLPHORBOL-13-ACETATE, 16561-29-8","100%, 15%, 85%, not calculated"
same,"tumour outcome (control, treated, inhibition, significance)","Carcinogen: 7,12-DIMETHYLBENZ[A]ANTHRACENE, 57-97-6, Dose [Inhibitor]: 0, 0.1 UMOL APPLIED 15 MIN PRIOR TO EACH PROMOTER DOSE FOR 22 WK BEGINNING 10 D POST CARCINOGEN DOSE (STUDY DURATION: 23, Route [Inhibitor]: DERMAL, Species: (20,20)/(20,20), Strain/Sex: CD-1/FEMALE, Target Tissue: Type of Lesion: SKIN: PAPILLOMA, Dose [Carcinogen]: 200 NMOL ONCE, Promoter: 12-O-TETRADECANOYLPHORBOL-13-ACETATE, 16561-29-8","100%, 38%, 62%, not calculated"
C#C[C@]1(O)CC[C@H]2[C@@H]3CCc4cc(O)ccc4[C@H]3[C@H](OC)C[C@@]21C,"tumour outcome (control, treated, inhibition, significance)","Carcinogen: N-METHYL-N-NITROSOUREA, 684-93-5, Dose [Inhibitor]: 0, 24 UG 3/WK FOR THE DURATION OF STUDY BEGINNING 7 D PRIOR TO CARCINOGEN DOSE (STUDY DURATION: 187 D), Route [Inhibitor]: SUBCUTANEOUS, Species: RAT, Strain/Sex: SPRAGUE-DAWLEY/FEMALE, Target Tissue: Type of Lesion: MAMMARY GLAND: TUMOR, Dose [Carcinogen]: 50 MG/KG BW ONCE, Promoter: NONE USED","100%, 90%, 10%, not significant"
same,"tumour outcome (control, treated, inhibition, significance)","Carcinogen: N-METHYL-N-NITROSOUREA, 684-93-5, Dose [Inhibitor]: 10 UG DAILY STARTING SIMULTANEOUSLY WITH CARCINOGEN TREATMENT AND CONTINUING FOR DURATION OF STUDY (STUDY DURATION: 145, Route [Inhibitor]: INJECTION, Species: RAT, Strain/Sex: SPRAGUE-DAWLEY/FEMALE, Target Tissue: Type of Lesion: MAMMARY GLAND: TUMOR, Dose [Carcinogen]: 5 MG/100 G BW AT 0, 4 AND 8 WK OF STUDY, Promoter: NONE USED","86%, 54%, 37%, not calculated"
Nc1nc2ncc(CNc3ccc(C(=O)N[C@@H](CCC(=O)O)C(=O)O)cc3)nc2c(=O)[nH]1,"tumour outcome (control, treated, inhibition, significance)","Carcinogen: HYDRAZINE SULFATE, 10034-93-2, Dose [Inhibitor]: 1.1 MG/D IN DIET STARTING 1 WK PRIOR TO ADMINISTRATION OF CARCINOGEN UNTIL END OF EXPERIMENT (STUDY DURATION: APPROXIMAT, Route [Inhibitor]: ORAL, Species: MOUSE, Strain/Sex: SWISS/MALE, FEMALE, Target Tissue: Type of Lesion: LIVER AND LUNG: COMBINED TUMORS, Dose [Carcinogen]: 1.1 MG/D 5 D/WK UNTIL 12 MO OF AGE, Promoter: NONE USED","24/29 (83%), 19/31 (61%), 26%, p<0.1"
same,"tumour outcome (control, treated, inhibition, significance)","Carcinogen: ISONIAZID, 54-85-3, Dose [Inhibitor]: 1.1 MG/D SIMULTANEOUS WITH CARCINOGEN 6 D/WK (STUDY DURATION: LIFETIME), Route [Inhibitor]: INTRAGASTRIC, Species: MOUSE, Strain/Sex: SWISS/MALE, Target Tissue: Type of Lesion: LUNG: TUMOR, Dose [Carcinogen]: 1.1 MG/D SIMULTANEOUS WITH INHIBITOR, Promoter: NONE USED","15/29 (52%), 0/16 (0%), 100%, p<0.01"
same,"tumour outcome (control, treated, inhibition, significance)","Carcinogen: N-methyl-N'-nitro-N-nitrosoguanidine, 70-25-7, Dose [Inhibitor]: 0, 5 mg/kg in water for 50 weeks beginning at 6 weeks of age, Route [Inhibitor]: Oral, Species: Rat, Strain/Sex: Wistar/Male, Target Tissue: Type of Lesion: Stomach: Tumor, Dose [Carcinogen]: 100 mg/L in drinking water for 50 weeks","5/11 (45.5%), 0/10 (0%), 100% p<0.05"
